# Source: article PMC8869728 (Biomedicines, 2022)
# pIC50: −log10 of the molar value. Like-named read-outs stand apart in the source and are kept apart here.
# Key:
# AChE [1] = target: T1, AChE (Mus musculus, UniProt P21836); format: in vivo; settings: vitisin A or B 40 mg/kg oral; donepezil 5 mg/kg; scopolamine-treated mice
# T1 construct: The isolated whole brain tissue was weighted, and powdered in liquid nitrogen using a mortar and pestle; from tissue; host or cells: whole brain of ICR mice (PBS extract, supernatant)
# T1 sequence (P21836 32-614): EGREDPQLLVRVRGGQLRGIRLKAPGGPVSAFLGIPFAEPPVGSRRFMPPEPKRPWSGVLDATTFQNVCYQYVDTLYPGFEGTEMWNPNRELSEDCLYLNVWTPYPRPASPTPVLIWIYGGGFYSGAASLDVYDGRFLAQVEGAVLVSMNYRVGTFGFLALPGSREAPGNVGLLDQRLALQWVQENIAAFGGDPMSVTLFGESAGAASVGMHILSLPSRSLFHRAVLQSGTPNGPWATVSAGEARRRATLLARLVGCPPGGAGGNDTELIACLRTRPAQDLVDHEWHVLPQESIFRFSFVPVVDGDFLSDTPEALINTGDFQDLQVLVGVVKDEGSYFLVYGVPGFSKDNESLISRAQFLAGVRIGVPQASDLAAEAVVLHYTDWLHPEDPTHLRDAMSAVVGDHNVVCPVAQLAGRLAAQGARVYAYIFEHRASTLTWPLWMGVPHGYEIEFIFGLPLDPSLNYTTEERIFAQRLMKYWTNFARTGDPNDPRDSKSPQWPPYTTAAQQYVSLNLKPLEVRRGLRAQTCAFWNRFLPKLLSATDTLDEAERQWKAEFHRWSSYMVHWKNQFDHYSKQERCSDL
# Description: (§1) The isolated whole brain tissue was weighted, and powdered in liquid nitrogen using a mortar and pestle. The proteins in the tissue powders were suspended and extracted by 1 mL, one-fold-diluted PBS. […] The protein contents in tissue extracts were determined by the BCA^TM protein assay kit (Thermo Fisher Scientific Inc.), and BSA was used to plot the standard curve. The AChE activity in the brain extracts was determined following the previous report. […] The malondialdehyde (MDA) levels in the brain extracts was determined using acidic TBA. The 320 μL of 0.5% TBA in 10% trichloroacetic acid was premixed with 80 μL of 5-fold diluted tissue extracts, and then heated at boiling water for 20 min, and then centrifuged at 10,000 rpm, 4 °C for 30 min. […] For determining protein expressions of BDNF and its receptor, TrkB, among brain extracts of the treated mice, the immune stains were performed onto polyvinylidene difluoride (PVDF) membranes (Millipore, Bedford, MA, USA). […] The western chemiluminescent HRP substrate kit (WBKL S0050, Millipore) was used to stain the target protein expressions, which the image system [Syngene GeneGnome5 imaging system (Cambridge, UK)] was used to quantify the image levels of target protein in the immune blots.
# recombinant human MAO-B = target: T2, recombinant human MAO-B (Homo sapiens, UniProt P27338); test: MAO-B inhibitory activities in vitro (kynuramine fluorescence); format: biochemical; settings: calculated from linear equation of three concentrations; read-out: IC50 of MAO-B inhibition
# T2 construct: purchased Sigma Chemical Co. (St. Louis, MO, USA)
# T2 sequence (P27338 1-520): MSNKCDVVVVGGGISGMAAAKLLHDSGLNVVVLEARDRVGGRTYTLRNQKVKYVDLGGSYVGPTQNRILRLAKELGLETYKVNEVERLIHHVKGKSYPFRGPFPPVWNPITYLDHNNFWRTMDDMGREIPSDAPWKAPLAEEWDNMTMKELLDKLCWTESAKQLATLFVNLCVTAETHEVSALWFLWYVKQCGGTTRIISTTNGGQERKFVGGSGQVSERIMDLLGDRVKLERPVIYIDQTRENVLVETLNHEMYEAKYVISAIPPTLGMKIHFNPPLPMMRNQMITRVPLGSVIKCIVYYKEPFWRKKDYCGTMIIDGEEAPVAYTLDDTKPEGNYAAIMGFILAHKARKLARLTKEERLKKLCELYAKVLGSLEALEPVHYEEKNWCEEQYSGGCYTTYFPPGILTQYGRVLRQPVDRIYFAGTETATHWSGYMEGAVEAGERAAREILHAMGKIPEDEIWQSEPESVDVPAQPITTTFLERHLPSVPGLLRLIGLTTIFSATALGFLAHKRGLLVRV
# Description: The kynuramine was used as the MAO-B substrate to generate a fluorescent product, 4-hydroxyquinoline, which was used to screen MAO-B inhibitory activity assays. […] The MAO-B inhibition (%) was calculated as the following: [(Fblank − Fsample)/(Fblank)] × 100%. The IC50 of MAO-B activity was calculated from each linear equation from three used concentrations for MAO-B inhibitions.
# SH-SY5Y cells = test: Neuroprotective activities against MGO-induced SH-SY5Y cell deaths (SRB cell viability); format: cell-based, human; settings: then 500 μM MGO 24 h
# Description: The SH-SY5Y cells were cultured at 37 °C in the mixed medium of EMEM/F12 (1:1) and 10% FBS in the humidified atmosphere and 5% CO2. […] The treated SH-SY5Y cells were washed with PBS, and then the media without (the blank) or with 500 μM MGO (the control group and sample groups) were added for additional 24-h incubation at 37 °C. The cell viability was assayed by the SRB dyes as follows. The MGO-treated SH-SY5Y cells were washed twice with PBS, fixed by 10% trichloroacetic acid, and then stained with 0.2% SRB (dissolved in 1% acetic acid) for 30 min. The unbound dyes were removed by washing the stained cells with 1% acetic acid. The bound dyes in alive cells were extracted by 500 µL of 10 mM Tris-HCl buffer (pH 7.9). The absorbance at 540 nm was measured using an ELISA reader (TECAN, Männedorf, Switzerland).
# [2] = test system: scopolamine-treated amnesiac ICR mice; test: Passive avoidance test in scopolamine-induced amnesiac ICR mice; settings: scopolamine 1 mg/kg i.p.
# Description: The 6-week-old male ICR mice were from the Laboratory Animal Center, College of Medicine, National Taiwan University (Taipei, Taiwan). The Prolab® RMH2500 normal diets (LabDiet Co., St. Louis, MO, USA) and water were free access during the animal experiments. After one week of acclimation, the VT-95EE or VT-95EE-EA pre-treatments were used to evaluate preventive functions as follows. […] At the first stage, the extract (VT-95EE and VT-95EE-EA)-administered group, ICR mice were treated from day 1 to day 11 by a single oral administration daily by gavage. […] Except for the blank, each mouse in all groups was intraperitoneally injected with scopolamine (1 mg/kg) 30 min after the oral administration. Each mouse in the blank group was injected with an equal volume of PBS instead of scopolamine. Each mouse received a learning and memory evaluation by a passive avoidance test 30 min after scopolamine injection at day 13 to day 14. All mice were sacrificed in the end of animal experiments at day 15, and the brain tissue of mouse in each group was isolated, weighted, and stored at −80°C for further uses.
# The pre-treatment was used to evaluate preventive functions. […] At the first stage, the purified compound (vitisin A and vitisin B) administered group, ICR mice were treated from day 1 to day 9 by a single oral administration daily by gavage. […] Except for the blank, each mouse in all groups was intraperitoneally injected with scopolamine (1 mg/kg) 30 min after the oral administration. Each mouse in the blank group was injected with an equal volume of PBS instead of scoploamine. Each mouse received a learning and memory evaluation by a passive avoidance test 30 min after scopolamine injection at day 11 to day 12. All mice were sacrificed in the end of animal experiments at day 13, and the brain tissue of mice in each group was isolated, weighted, and stored at −80 °C for further uses.
# The apparatus for passive avoidance test is a shuttle chamber composed of a bright box and a dark box; the dark box could be closed by a manual guillotine door (AccuScan Instruments Inc, Columbus, OH, USA). The dark box contained a wired metal floor, through which the electric foot shocks were automatically delivered in the acquisition trial. The first day was the acquisition trial, and the second day was the retention trial. For the acquisition trial, each mouse was placed around the shuttle chamber to acclimatize to the environment; 30 min later, each mouse was transferred to the bright box to record the time in the bright box (the step-through latency, s).
# recombinant human AChE = target: T3, recombinant human AChE (Homo sapiens, UniProt P22303); test: biochemical; settings: calculated from linear equation of three concentrations; read-out: IC50 of AChE inhibition
# T3 construct: purchased R&D Systems Inc. (Minneapolis, MN)
# T3 sequence (P22303 32-614): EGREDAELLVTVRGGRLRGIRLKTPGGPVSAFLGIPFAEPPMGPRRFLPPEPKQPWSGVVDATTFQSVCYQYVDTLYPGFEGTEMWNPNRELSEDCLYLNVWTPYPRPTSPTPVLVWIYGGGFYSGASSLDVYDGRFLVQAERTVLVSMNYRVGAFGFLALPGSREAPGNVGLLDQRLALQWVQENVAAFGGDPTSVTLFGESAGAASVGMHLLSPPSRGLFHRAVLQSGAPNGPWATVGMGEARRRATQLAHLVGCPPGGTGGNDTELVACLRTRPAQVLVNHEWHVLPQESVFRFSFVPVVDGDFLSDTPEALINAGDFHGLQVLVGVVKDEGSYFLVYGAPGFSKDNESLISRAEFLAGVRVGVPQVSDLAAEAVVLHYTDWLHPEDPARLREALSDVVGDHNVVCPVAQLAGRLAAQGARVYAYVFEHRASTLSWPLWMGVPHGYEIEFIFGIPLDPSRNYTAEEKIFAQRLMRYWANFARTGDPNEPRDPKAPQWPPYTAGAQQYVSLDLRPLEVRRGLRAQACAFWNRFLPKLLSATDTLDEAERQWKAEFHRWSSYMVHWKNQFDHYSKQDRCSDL
# From the text: The synthetic acetylthiocholine iodide was used as substrates for in vitro AChE activity assays. […] The released thiocholine was reacted with DTNB to generate yellowish 5-thio-2-nitrobenzoate. […] The AChE inhibitory activities (%) were as following: [(A405blank − A405sample)/(A405blank)] × 100%.
# [3] = test system: brain-derived neurotrophic factor (BDNF); test: BDNF protein expression in mouse brain tissue extracts (immune blot); format: in vivo; settings: vitisin A or B 40 mg/kg oral; donepezil 5 mg/kg; scopolamine-treated mice
# Description: as §1
# [4] = test system: malondialdehyde (MDA) levels; test: MDA levels in mouse brain tissue extracts (TBA); format: in vivo; settings: vitisin A or B 40 mg/kg oral; donepezil 5 mg/kg; scopolamine-treated mice
# Description: as §1
# AChE [5] = settings: read-out: IC50 of AChE inhibitory activities; cited from earlier work
# [6] = test system: C57BL/6 mice treated with high fat diets; set-up: method as in PMID 26448517; settings: oral administration once a day at dose of 25 mg/kg with high fat diets; cited from earlier work
# [7] = test system: endothelium-intact thoracic aortic rings of SD rats; set-up: method as in PMID 22762395; settings: by increasing NO releases; cited from earlier work
# [8] = test system: tropomyosin receptor kinase B (TrkB); test: TrkB protein expression in mouse brain tissue extracts (immune blot); format: in vivo; settings: vitisin A or B 40 mg/kg oral; donepezil 5 mg/kg; scopolamine-treated mice
# Description: as §1
# [9] = test system: spontaneously hypertensive rats; set-up: method as in PMID 22762395; settings: at the 8-h after a single oral dose of 10 mg/kg; cited from earlier work
# AChE [10] = test system: AChE; set-up: method as in PMID 32118214; settings: read-out: IC50 of AChE inhibitory activity; cited from earlier work
# [11] = compound study: vitisin A or vitisin B 40 mg/kg oral daily day 1-13, donepezil 5 mg/kg day 10-13
# [12] = pretreatment 2.5, 5, 10, and 20 μM for 24 h
SMILES,pIC50 (recombinant human MAO-B),"step-through latency in the retention trial compared to the control [2, 11]",pIC50 (recombinant human AChE),MGO-treated cell viability compared to the control (SH-SY5Y cells; [12]),pIC50 (AChE [5]),further results
"Oc1ccc([C@H]2Oc3cc(O)cc(/C=C/c4ccc5c(c4)[C@@H](c4cc(O)cc6c4[C@H](c4cc(O)cc(O)c4)[C@@H](c4ccc(O)cc4)O6)[C@H](c4ccc(O)cc4)O5)c3[C@@H]2c2cc(O)cc(O)c2)cc1 [vitisin B, (−)-vitisin B]",5.97,no significant difference,5.88,,,"AChE activity in brain tissue extracts compared to the control (AChE [1]): lower increased AChE activities; MGO-treated cell viability compared to the control (SH-SY5Y cells; pretreatment 5, 10, and 20 μM for 24 h): significantly to elevate MGO-treated cell viability; BDNF protein expression in brain tissue extracts [3]: recover the reduced BDNF protein expressions; MDA levels in brain tissue extracts compared to the control [4]: no effect on reduction of MDA level"
"COc1cc2c(cc1OC)C(=O)C(CC1CCN(Cc3ccccc3)CC1)C2 (stereo not drawn) [donepezil, reference compound]",,significant longer time,,,,"step-through latency in the retention trial compared to the control ([2]; extract study: VT-95EE or VT-95EE-EA 200 and 400 mg/kg oral daily day 1-15, donepezil 5 mg/kg day 12-15): significant longer time"
"Oc1ccc(/C=C/c2cc(O)cc(O)c2)cc1 [resveratrol, reference compound]",4.38,,,no significant difference,,
O=C(O[C@H]1[C@@H]2OC(=O)c3cc(O)c(O)c(O)c3-c3c(cc(O)c(O)c3O)C(=O)OC[C@H]2OC(O)[C@@H]1OC(=O)c1cc(O)c(O)c(O)c1)c1cc(O)c(O)c(O)c1 (stereo partly drawn) [tellimagrandin I],,,,,4.74,
"O=C(OC[C@H]1O[C@@H](OC(=O)c2cc(O)c(O)c(O)c2)[C@H](OC(=O)c2cc(O)c(O)c(O)c2)[C@@H](OC(=O)c2cc(O)c(O)c(O)c2)[C@@H]1O)c1cc(O)c(O)c(O)c1 [1,2,3,6-tetra-O-galloyl-β-D-glucopyranoside]",,,,,4.07,
"Oc1ccc([C@H]2c3c(O)cc(O)cc3[C@H]3c4c(cc(O)cc4[C@@H]2[C@H]2c4cc(O)cc5c4[C@H](c4cc(O)cc(O)c4[C@@H]2c2ccc(O)cc2)[C@@H](c2ccc(O)cc2)O5)O[C@@H]3c2ccc(O)cc2)cc1 [hopeaphenol, (+)-hopeaphenol]",4.05,,5.09,no significant difference,,
"Oc1ccc([C@H]2c3c(O)cc(O)cc3[C@H]3c4c(cc(O)cc4[C@@H]2c2cc(/C=C/c4cc(O)cc5c4[C@H](c4cc(O)cc(O)c4)[C@@H](c4ccc(O)cc4)O5)ccc2O)O[C@@H]3c2ccc(O)cc2)cc1 [vitisin A, (+)-vitisin A]",5.31,significant longer time,5.89,significantly to elevate MGO-treated cell viability,,weight gains [6]: reduce weight gains; effect on phenylephrine-induced tension [7]: vasodilating effects; AChE activity in brain tissue extracts compared to the control (AChE [1]): lower increase in AChE and MDA levels; TrkB protein expression in brain tissue extracts [8]: recover both protein expressions of the reduced BDNF and TrkB; BDNF protein expression in brain tissue extracts [3]: recover both protein expressions of the reduced BDNF and TrkB; greatest reduction in diastolic blood pressure [9]: 25.7 mmHg; greatest reduction in systolic blood pressure [9]: 23.6 mmHg; MDA levels in brain tissue extracts compared to the control [4]: lower increase in AChE and MDA levels
O=C(OC1O[C@@H]2COC(=O)c3cc(O)c(O)c(O)c3-c3c(cc(O)c(O)c3O)C(=O)O[C@H]2[C@H](OC(=O)c2cc(O)c(O)c(O)c2)[C@H]1OC(=O)c1cc(O)c(O)c(O)c1)c1cc(O)c(O)c(O)c1 (stereo partly drawn) [tellimagrandin II],,,,,4.73,
COc1cc(/C=C/C(=O)CC(=O)/C=C/c2ccc(O)c(O)c2)ccc1O [demethylcurcumin],,,,,,pIC50 (AChE [10]): 4.17
